{
  "source": "patent US8501400B2",
  "about": "“Methods and compositions for determining the pathogenic status of infectious agents” (priority 2007, dated 2013)",
  "key": {"RIF-resistant Mtb strain": {"tested_on": "RIF-resistant Mtb strain", "format": "cell-based", "settings": "16 hr drug treatment, MOI=1, 4 hr post-infection, RT-PCR"}, "EMB resistant Mtb strain": {"tested_on": "EMB resistant Mtb strain", "format": "cell-based", "settings": "16 hr drug treatment, MOI=1, 4 hr post-infection, RT-PCR"}},
  "data": [
    {"smiles": "CC[C@@H](CO)NCCN[C@@H](CC)CO", "note": "[EMB, Ethambutol]", "values": [
      {"measurement": "Reduction in SML generation compared to the untreated control", "setting": "RIF-resistant Mtb strain", "result": "approximately 10 fold"},
      {"measurement": "SML generation after drug treatment", "setting": "EMB resistant Mtb strain", "result": "not decreased"}
    ]}
  ]
}
